# Laboratory results from PMC4026528 (PLoS ONE, 2014).
# “And” between values parts separate entries of the source, which are not always exact repeats. Identical values can stand only once.
# How the values were obtained:
# HT-1080 cells = experiment: Scratch assay (motility), HT-1080; format: cell-based, human; conditions: HT-1080, 20 hours
# Protocol: (§1) Soft agar assay and analysis was carried out as previously described. For scratch assay, confluent monolayer of U2OS and HT-1080 cells were subjected to scratch using a sterile pipette tip. Wounded monolayers were washed to remove debris and incubated with SEN461 at different concentrations for 20 hours. After the incubation period, images were taken under an Axiovert 200M (Zeiss) microscope equipped with a CCD camera, and the gap width was measured using MetaMorph 6.3 software (Universal Imaging Corp.) to calculate the area covered by cells (pixels unit). The tube formation assay was performed using growth factor-reduced Matrigel from BD (BD Biosciences; San Jose, CA, USA). Matrigel was thawed overnight at 4°C and was diluted (1∶1) with phenol red-free DMEM without serum. 100 µl of the diluted matrigel was used to coat the wells of a 96 well plate and was allowed to polymerize for 2 hours at 37°C. After equilibrating the gel with the complete growth medium, 15×10^3 cells were seeded in each well and incubated for 20 hours. The tube formation was monitored under a phase contrast microscope (Axiovert 200, Zeiss) and imaged using MetaMorph system (Universal Imaging Corp).
# [1] = test system: Notch signaling in HEK293 cells; experiment: Hes5 promoter luciferase reporter with Notch1-IC, HEK293; format: cell-based; conditions: HEK293, Notch1-IC stimulation, data not shown
# Excerpt: (§2) The generation of TCF-Luciferase and TA-Renilla reporter plasmids as well as IC50 determination and calculation was reported previously. Human AXIN1 and WNT3A cDNAs were purchased from Origene as “transfection ready” plasmids. Dominant negative TCF4 cDNA was purchased from Upstate. Luciferase reporter of the nucleolin promoter (pNucL14) and FLAG-c-Myc expressing vector were from B. Amati. Luciferase reporter of the Hes5 promoter and Notch1-IC expressing vector were from I. Screpanti. Lentiviral vectors for inducible dominant negative TCF4 (rLV-EF1-tTS, rLV-EF1-rtTA and rLV-TRE-CMV-HA-TCF4DN) were purchased from Vectalys.
# (§3) Transfections were carried out using Lipofectamine 2000 (Invitrogen) according to the manufacturer’s instructions. Lentiviral expression of TCF-Luc, TA-Renilla, and the inducible dominant negative TCF4, were carried out following Vectalys instructions. For reporter assays, luciferase activities were performed as described previously.
# [2] = test system: U2OS (osteosarcoma) cells; experiment: Soft agar assay (anchorage-independent growth), U2OS; format: cell-based, human
# Protocol: as §1
# [3] = test system: Axin1, c-Myc, p21 protein in HT-1080 cells; experiment: Western blotting in HT-1080; format: cell-based, human; conditions: HT-1080, overnight
# [4] = test system: Axin1/P-β-catenin co-localization in U2OS cells; experiment: Axin1-GFP / P-β-catenin co-localization (confocal) in U2OS; format: cell-based, human; conditions: Wnt3a-CM, 10 µmol/L overnight
# Protocol: For co-localization experiments, U2OS cells were plated directly on coverslips coated with Fibronectin (Invitrogen). After transfections and incubation treatment of 24 h, cells were washed once with 1X PBS and then fixed with 4% paraformaldehyde for 15 min. After three washes in PBS, cells were permeabilized with 0.1% Triton X-100 for 10 min and washed three times with TBS (Bio-Rad). […] After 24 h, cells were washed three times with TBS and incubated for 1 h with the following secondary antibody Alexa Fluor 546-conjugated goat anti-rabbit IgG (Invitrogen, 1∶1000). Finally, coverslips were mounted onto glass slides using Prolong Gold Antifade reagent with DAPI (Invitrogen). Cells were examined under laser confocal fluorescence microscope with plan-apochromate 40x and 63x/1.4 oil-immersion objective (LSM 510 Meta, Axiovert 200, Zeiss). Co-localization experiments were performed in triplicate, and data/images presented are the average of at least 10 random fields for each independent experiment.
# [5] = Plasma and tumor exposure in HT-1080 xenograft mice; format: in vivo, female Crl:CD-1 nude mice; conditions: 30 mg/kg BID PO
# Protocol: Female athymic nude mice (6 weeks old, Crl:CD-1 nude mice) were obtained from Charles River Italia (Calco, Italy). HT-1080 cells (6×10^∧6 cells) were resuspended in 200 µl of PBS 1X and injected subcutaneously in the right flank of the mice. Body weight and tumor measurements (using a digital caliper) were performed twice a week. Randomization was performed on day 12 after cell injection by comparing tumor mass and treatments started on day 13 when tumors reached a median size of 246 mm^3 (range = 230–268 mm^3). SEN461 was formulated in 0.5% w/v Methocel in MilliQ water and administered PO by oral gavage twice a day at 30 mg/kg for seven consecutive days in a total of 15 animals (n = 5 for each time point). Control animals (n = 5) were administered with the vehicle for the same time period. On treatment day 19, the mice were euthanized under inhalant anesthesia with isoflurane and tumor and blood samples were collected at three different time points (1–4–8 h, n = 5 animals for each time point) after last treatment and subjected to gene expression analysis and compound quantification. All mice were maintained in a conventional-specific-pathogen-free facility according to the NIH guidelines using an approved Animal Care and Use Committee protocol. During all the experimental time period, mice were housed (5 animals/cage) in individually ventilated solid floor plastic cages (Sealsafe Plus GR500, Tecniplast-Gazzada (VA) – Italy) using as bedding the Sawdust SCOBIS UNO by MUCEDOLA S.r.l (via Galileo Galilei 4, 20019 Settimo Milanese, Milano, Italy). Cages were maintained at a temperature of 20–24°C and humidity of 40–70% (Siemens Desigo Apparatus ver. 4.1) with 70 air changes/hour in the cage (10–15 air changes/hour in the room). Animals were subjected to a 12-hour light/12-hour dark cycle and have free access to a standard pelleted commercial laboratory diet (Certified Rodent irradiated 4RF21– Mucedola, Italy) and to municipal tap water, purified by reverse osmosis and autoclaved. The study was conducted in compliance with Decreto Legislativo January 27, 1992, N. 116, Gazzetta Ufficiale N. 40 February 18, 1992, (Directive N. […]) concerning protection of animals used for scientific purposes. The project was authorized by the Italian Institute of Health (48/2009/B). The experimental protocol was rewieved and approved by the Internal Ethical Committee.
# [6] = test system: Wnt transcriptional activity (TCF reporter) in U2OS cells; experiment: TCF-Luciferase/TA-Renilla Wnt reporter assay in U2OS; format: cell-based, human; conditions: 24 h, concentration dependent
# Excerpt: as §2, §3
# [7] = test system: Wnt target gene mRNA in HT-1080 cells; experiment: Quantitative RT-PCR of Wnt target genes in HT-1080; format: cell-based, human; conditions: HT-1080, overnight, 10 µmol/L
# Protocol: RNA extraction and quantitative RT-PCR (qPCR) expression analysis was performed as described previously. Gene expression analysis was performed using the human housekeeping gene RPL13A. Primers for the hAXIN2, hCDC25A, hc-MYC, hFZD4, hDVL2, hCSNK1G and hVEGF-A were the following: Fw: 5′-CAAGGGCCAGGTCACCAA-3′ Rv: 5′-CCCCCAACCCATCTTCGT-3′; Fw: 5′-[…]-3′ Rv: 5′-[…]-3′; Fw: 5′-GGCTCCTGGCAAAAGGTCA-3′ Rv: 5′-[…]-3′; Fw: 5′-[…]-3′ Rv: 5′-[…]-3′; Fw: 5′-[…]-3′ Rv: 5′-GTCTCCCCGCTCATTGCTC-3′; Fw: 5′-[…]-3′ Rv: 5′-[…]-3′; Fw: 5′-[…]-3′ Rv: 5′-[…]-3′.
# [8] = test system: Myc transcriptional activation in HT-1080 cells; experiment: Nucleolin promoter (pNucL14) luciferase reporter, HT-1080; format: cell-based, human; conditions: HT-1080, pNucL14 ± FLAG-c-Myc
# Excerpt: as §2, §3
# 143B osteosarcoma cells = experiment: Soft agar assay (anchorage-independent growth), 143B; format: cell-based, human; conditions: lack of sensitivity up to highest concentration
# Protocol: as §1
structure (smiles),measurement,setting,value
COCC(=O)N1CCN(C(=O)C2CCC(Cn3c(=O)c4cc(OC)ccc4n(C)c3=O)CC2)CC1 (centres unmarked) [SEN461],cellular motility (two-dimensional scratch assay),HT-1080 cells,neither U2OS nor HT-1080 cells showed inhibition of motility
same,Notch signaling (Hes5 promoter luciferase),[1],did not detect any transcriptional effects
same,IC50,[2],300 nM
same,Axin1 protein level,[3],robust concentration dependent stabilization
same,CDK inhibitor p21 protein level,[3],up-regulation
same,c-Myc protein level,[3],down-modulation of c-Myc
same,phosphorylated β-catenin associated with Axin1 (co-localization),[4],increase in the amount of phosphorylated β-catenin associated with Axin1
same,Ctumor/plasma,"[5]; day 7, 1 h",0.23
same,Cplasma,"[5]; day 7, 1 h after last dose",6.6 µmol/L and 6.62 ± 2.08 µmol/L
same,Ctumor,"[5]; day 7, 1 h after last dose",1.5 µmol/L and 1.54 ± 0.35 µmol/L
same,Ctumor/plasma,"[5]; day 7, 4 h",0.23
same,Cplasma,"[5]; day 7, 4 h after last dose",2.57 ± 0.08 µmol/L
same,Ctumor,"[5]; day 7, 4 h after last dose",0.58 ± 0.08 µmol/L
same,Ctumor/plasma,"[5]; day 7, 8 h",0.17
same,Cplasma,"[5]; day 7, 8 h after last dose",0.57 ± 0.19 µmol/L
same,Ctumor,"[5]; day 7, 8 h after last dose",0.10 ± 0.02 µmol/L
same,TCF-dependent reporter activity (TCF-Luciferase/TA-Renilla),[6],reduced TCF-dependent reporter activity
same,c-MYC mRNA,[7],significant down-modulation
same,Myc mediated activation / basal activity of nucleolin reporter,[8],did not affect
same,IC50,143B osteosarcoma cells,> 30000 nM
